Results published in patent US20260053811A1, “METHODS OF TREATING HYPERTENSION IN OBESE SUBJECTS” (Mineralys Therapeutics, Inc., priority 2022, published 2026).

Test system: hypertensive subjects
Assay: Seated automated office blood pressure (AOBP) in randomized, placebo-controlled, dose-ranging study
Assay type: in vivo, human
Settings: Part 1, 100 mg QD
Method: A randomized, double-blinded, placebo-controlled, dose-ranging, multicenter study was conducted to evaluate the effect of orally administered Compound A HBr on blood pressure for the treatment of hypertension in male and female subjects ≥18 years of age.
The study consists of two parts. For enrollment into Part 1 of the study, a subject's value of plasma renin activity (PRA) must be ≤1 ng/mL/h based on morning measurement. If the value of PRA >1 ng/mL/h based on morning measurement, then subjects may be eligible to enter Part 2 of the study.
For Part 1, 163 enrolled subjects ≥18 years of age were randomized into 6 equal treatment groups (1:1:1:1:1:1) to 12.5 mg BID, 25 mg BID, 12.5 mg QD, 50 mg QD, 100 mg QD, or placebo. After a review of interim clinical data, the 2 lowest dose levels (12.5 mg QD and 12.5 mg BID) were stopped for future randomization due to a lack of consistent meaningful reduction of blood pressure, but the patients randomized to that point remained in the study through completion. Thus, after the review of interim clinical data, subjects were randomized into 4 equal treatment groups (1:1:1:1) to 25 mg BID, 50 mg QD, 100 mg QD, or placebo.
For Part 2, 36 enrolled subjects ≥18 years of age were randomized (5:1) to either 100 mg QD Compound A HBr or placebo such that the Compound A HBr treatment group consisted of approximately 30 subjects and the placebo treatment group will consist of approximately 6 subjects.
Subjects orally administered the assigned study drug (Compound A HBr or placebo) according to the assigned dosing regimen for 8 weeks beginning on Study Day 1. All subjects in Part 1 (regardless of dosing group) received BID dosing to preserve the integrity of the blind; active drug is administered as the morning dose for all QD dose groups. Subjects returned to the research facility or were seen by the clinical investigator or approved home health care professional at the end of Study Weeks 1, 2, 3, 4, 5, 6, 7, and 8 (±2 days) for protocol-defined efficacy and safety assessments and procedures, assessment of adverse events (AEs), and confirmation of compliance with study drug usage. Subjects also completed a telephone visit and blood pressure (BP) check at home approximately 3 days post last dose of study drug. Subjects attended up to 14 full clinic visits, including a pre-Screening visit, a Screening/start of Placebo Run-in visit, a second visit during Placebo Run-in, a clinic visit to initiate the ABPM procedure, a Randomization visit, 8 weekly visits during double-blind treatment, and an end-of-study visit scheduled 4 weeks after the last study treatment for final efficacy and safety assessments.
An automated oscillometric sphygmomanometer device was used to measure the subjects' systolic and diastolic blood pressure in office after approximately 5 minutes of rest in the seated position.
The primary endpoint is the change in office-measured (mean of last 2 of 5 unattended measurements using an automated oscillometric sphygmomanometer device after approximately 5 minutes of rest in the seated position) systolic blood pressure (SBP) from baseline to the end of Study Week 8.
Secondary endpoints of this study were: • (a) Change in 24-hour ambulatory blood pressure monitoring (ABPM) parameters (systolic and diastolic) from baseline to the end of Study Week 7. • (b) Change in office-measured SBP from baseline to the end of Study Weeks 1, 2, 3, 4, 5, 6, and 7. • (c) Change in office-measured diastolic blood pressure (DBP) from baseline to the end of Study Weeks 1, 2, 3, 4, 5, 6, 7, and 8. • (d) Proportion of subjects who achieve office-measured BP of ≤130/80 mm Hg by the end of Study Week 8.

[1] = Systolic Blood Pressure Tertile at Baseline High
[2] = Systolic Blood Pressure Tertile at Baseline Low
[3] = Systolic Blood Pressure Tertile at Baseline Middle
[4] = Thiazide Diuretic Use at Baseline No

CC(=O)N[C@H]1CC[C@H](NC(=O)CN2CCN(c3nncc(-c4ccc(C)cc4)n3)CC2)CC1 [Compound A HBr]
Mean (SD) Automated Office-Measured Diastolic Blood Pressure at Wk 8 (Age ≥80 yr): 65.75 (11.73) mmHg | Mean (SD) Automated Office-Measured Systolic Blood Pressure at Wk 8 (Age ≥80 yr): 125.00 (8.04) mmHg | Mean (SD) Change from Baseline at Week 8 in Automated Office-Measured Diastolic Blood Pressure (Age ≥80 yr): −4.75 (8.03) mmHg | Mean (SD) Change from Baseline at Week 8 in Automated Office-Measured Systolic Blood Pressure (Age ≥80 yr): −18.13 (12.34) mmHg | Mean (SD) Automated Office-Measured Diastolic Blood Pressure at Wk 8 (BMI 25−30 kg/m^2): 72.67 (9.33) mmHg | Mean (SD) Change from Baseline at Week 8 in Automated Office-Measured Diastolic Blood Pressure (BMI 25−30 kg/m^2): −6.50 (7.61) mmHg | Mean (SD) Automated Office-Measured Diastolic Blood Pressure at Wk 8 (BMI <25 kg/m^2): 78.33 (19.14) mmHg | Mean (SD) Change from Baseline at Week 8 in Automated Office-Measured Diastolic Blood Pressure (BMI <25 kg/m^2): −0.67 (7.01) mmHg | Mean (SD) Automated Office-Measured Diastolic Blood Pressure at Wk 8 (BMI >30 kg/m^2): 71.42 (7.10) mmHg | Mean (SD) Change from Baseline at Week 8 in Automated Office-Measured Diastolic Blood Pressure (BMI >30 kg/m^2): −6.88 (7.81) mmHg | Mean (SD) Automated Office-Measured Systolic Blood Pressure at Wk 8 (BMI at baseline 25-30 kg/m^2): 129.67 (10.05) mmHg | Mean (SD) Change from Baseline at Week 8 in Automated Office-Measured Systolic Blood Pressure (BMI at baseline 25-30 kg/m^2): −11.17 (11.94) mmHg | Mean (SD) Automated Office-Measured Systolic Blood Pressure at Wk 8 (BMI at baseline <25 kg/m^2): 146.00 (18.33) mmHg | Mean (SD) Change from Baseline at Week 8 in Automated Office-Measured Systolic Blood Pressure (BMI at baseline <25 kg/m^2): −7.83 (17.47) mmHg | Mean (SD) Automated Office-Measured Systolic Blood Pressure at Wk 8 (BMI at baseline >30 kg/m^2): 129.00 (15.28) mmHg | Mean (SD) Change from Baseline at Week 8 in Automated Office-Measured Systolic Blood Pressure (BMI at baseline >30 kg/m^2): −18.50 (13.40) mmHg | Mean (SD) Automated Office-Measured Diastolic Blood Pressure at Wk 8 (Race Black or AA): 71.92 (10.83) mmHg | Mean (SD) Automated Office-Measured Systolic Blood Pressure at Wk 8 (Race Black or AA): 129.92 (16.18) mmHg | Mean (SD) Change from Baseline at Week 8 in Automated Office-Measured Diastolic Blood Pressure (Race Black or AA): −7.38 (7.65) mmHg | Mean (SD) Change from Baseline at Week 8 in Automated Office-Measured Systolic Blood Pressure (Race Black or AA): −17.13 (11.55) mmHg | Mean (SD) Automated Office-Measured Diastolic Blood Pressure at Wk 8 (Race Other): 74.00 (8.26) mmHg | Mean (SD) Automated Office-Measured Systolic Blood Pressure at Wk 8 (Race Other): 132.54 (12.47) mmHg | Mean (SD) Change from Baseline at Week 8 in Automated Office-Measured Diastolic Blood Pressure (Race Other): −3.69 (7.91) mmHg | Mean (SD) Change from Baseline at Week 8 in Automated Office-Measured Systolic Blood Pressure (Race Other): −11.27 (14.54) mmHg | Mean (SD) Automated Office-Measured Diastolic Blood Pressure at Wk 8 (Seated SBP Tertile High): 72.11 (11.78) mmHg | Mean (SD) Change from Baseline at Week 8 in Automated Office-Measured Diastolic Blood Pressure (Seated SBP Tertile High): −8.78 (8.56) mmHg | Mean (SD) Automated Office-Measured Diastolic Blood Pressure at Wk 8 (Seated SBP Tertile Low): 73.86 (11.01) mmHg | Mean (SD) Change from Baseline at Week 8 in Automated Office-Measured Diastolic Blood Pressure (Seated SBP Tertile Low): −0.29 (6.44) mmHg | Mean (SD) Automated Office-Measured Diastolic Blood Pressure at Wk 8 (Seated SBP Tertile Middle): 73.22 (5.97) mmHg | Mean (SD) Change from Baseline at Week 8 in Automated Office-Measured Diastolic Blood Pressure (Seated SBP Tertile Middle): 6.17 (6.64) mmHg | Mean (SD) Automated Office-Measured Diastolic Blood Pressure at Wk 8 (Sex Female): 70.87 (10.51) mmHg | Mean (SD) Automated Office-Measured Systolic Blood Pressure at Wk 8 (Sex Female): 132.40 (15.95) mmHg | Mean (SD) Change from Baseline at Week 8 in Automated Office-Measured Diastolic Blood Pressure (Sex Female): −3.67 (7.27) mmHg | Mean (SD) Change from Baseline at Week 8 in Automated Office-Measured Systolic Blood Pressure (Sex Female): −13.17 (12.05) mmHg | Mean (SD) Automated Office-Measured Diastolic Blood Pressure at Wk 8 (Sex Male): 76.20 (6.81) mmHg | Mean (SD) Automated Office-Measured Systolic Blood Pressure at Wk 8 (Sex Male): 129.60 (11.45) mmHg | Mean (SD) Change from Baseline at Week 8 in Automated Office-Measured Diastolic Blood Pressure (Sex Male): −8.15 (8.28) mmHg | Mean (SD) Change from Baseline at Week 8 in Automated Office-Measured Systolic Blood Pressure (Sex Male): −15.45 (15.48) mmHg | Mean (SD) Automated Office-Measured Systolic Blood Pressure at Wk 8 [1]: 139.11 (15.36) mmHg | Mean (SD) Change from Baseline at Week 8 in Automated Office-Measured Systolic Blood Pressure [1]: −19.06 (12.91) mmHg | Mean (SD) Automated Office-Measured Systolic Blood Pressure at Wk 8 [2]: 129.86 (9.26) mmHg | Mean (SD) Change from Baseline at Week 8 in Automated Office-Measured Systolic Blood Pressure [2]: −4.71 (8.58) mmHg | Mean (SD) Automated Office-Measured Systolic Blood Pressure at Wk 8 [3]: 124.56 (13.30) mmHg | Mean (SD) Change from Baseline at Week 8 in Automated Office-Measured Systolic Blood Pressure [3]: −16.39 (13.97) mmHg | Automated Office-Measured Diastolic Blood Pressure, Week 8, Mean (SD) [4]: 72.40 (10.54) mmHg | Mean (SD) Automated Office-Measured Systolic Blood Pressure at Wk 8 [4]: 135.80 (9.10) mmHg
